Experimental data as given in ChEMBL document CHEMBL6182828, “Medicinal chemistry-based perspectives on thiophene and its derivatives: exploring structural insights to discover plausible druggable leads” (RSC Med Chem, 2025).
Values belong to the molecule of their own block, whether it stands above or below them.

Tests used:
[1] = target: Vascular endothelial growth factor receptor 2 (Homo sapiens, UniProt P35968); experiment: Inhibition of VEGFR2 (unknown origin)
[2] = target: Epidermal growth factor receptor (Homo sapiens, UniProt P00533); experiment: Inhibition of EGFR (unknown origin)
[3] = target: Acetylcholinesterase (Homo sapiens, UniProt P22303); experiment: Inhibition of AChE (unknown origin) by Ellman's method
[4] = tested on: NCI-H460; experiment: Growth inhibition of human NCI-H460 cells incubated for 48 hrs by SRB assay; format: functional
[5] = tested on: SF-268; experiment: Growth inhibition of human SF-268 cells incubated for 48 hrs by SRB assay; format: functional
[6] = tested on: MCF7; experiment: Growth inhibition of human MCF7 cells incubated for 48 hrs by SRB assay; format: functional
[7] = tested on: Rattus norvegicus; experiment: Anti-inflammatory activity against carrageenan-induced paw edema in Albino rat assessed as inhibition of paw edema at 50 mg/kg, po relative to control; format: functional; parameters: scale not given: the % may be the effect or the level left
[8] = Half life in po dosed human; format: ADME, organism-based; conditions: in vivo
[9] = tested on: Mus musculus; experiment: Anti-diabetic activity against 16 hrs fasted KK/Ay mouse assessed as reduced blood glucose level at 2g/kg, po measured after 2 hrs by oral pyruvate tolerance test; format: functional
[10] = Inhibition of urease (unknown origin)
[11] = tested on: MCF7; experiment: Antiproliferative activity against human MCF7 cells; format: functional, cell-based; conditions: Homo sapiens, MCF7; read-out: IC50
[12] = Antioxidant activity assessed as DPPH radical scavenging activity at 10 uM incubated for 30 mins by absorbance based assay relative to control; format: functional
[13] = tested on: Escherichia coli; experiment: Antibacterial activity against Escherichia coli ATCC 35218 assessed as zone of inhibition incubated for 48 hrs by agar diffusion method; format: functional
[14] = tested on: Bacillus subtilis; experiment: Antibacterial activity against Bacillus subtilis ATCC 6633 assessed as zone of inhibition incubated for 48 hrs by agar diffusion method; format: functional
[15] = tested on: Arthroderma pannicola; experiment: Antifungal activity against Arthroderma pannicola assessed as diameter of zone of inhibition; format: functional
[16] = tested on: Candida albicans; experiment: Antifungal activity against Candida albicans assessed as zone of inhibition; format: functional
[17] = Antioxidant activity assessed as ROS scavenging activity relative to control; format: functional; conditions: dose or concentration not given here
[18] = target: Amine oxidase [flavin-containing] B (Homo sapiens, UniProt P27338); experiment: Inhibition of human MAO-B measured after 25 mins by Amplex Red reagent based fluorescence analysis
[19] = Elimination half life in human at 5 mg/kg, po; format: ADME, organism-based; conditions: in vivo, read-out: LambdaZ (converted)
[20] = tested on: Staphylococcus aureus; experiment: Antibacterial activity against Staphylococcus aureus ATCC 25923 assessed as zone of inhibition; format: functional
[21] = tested on: Bacillus subtilis; experiment: Antibacterial activity against Bacillus subtilis ATCC 6633 assessed as zone of inhibition; format: functional
[22] = target: T1, Glucagon receptor (Homo sapiens, UniProt P47871); experiment: Antagonist activity at wild type human GCGR transfected in HEK293T cells assessed as intracellular cAMP accumulation incubated for 60 mins by FRET assay; format: functional, cell-based
[23] = target: T1, Glucagon receptor; experiment: Antagonist activity at wild type human GCGR

Vascular endothelial growth factor receptor 2, sequence (P35968 whole entry): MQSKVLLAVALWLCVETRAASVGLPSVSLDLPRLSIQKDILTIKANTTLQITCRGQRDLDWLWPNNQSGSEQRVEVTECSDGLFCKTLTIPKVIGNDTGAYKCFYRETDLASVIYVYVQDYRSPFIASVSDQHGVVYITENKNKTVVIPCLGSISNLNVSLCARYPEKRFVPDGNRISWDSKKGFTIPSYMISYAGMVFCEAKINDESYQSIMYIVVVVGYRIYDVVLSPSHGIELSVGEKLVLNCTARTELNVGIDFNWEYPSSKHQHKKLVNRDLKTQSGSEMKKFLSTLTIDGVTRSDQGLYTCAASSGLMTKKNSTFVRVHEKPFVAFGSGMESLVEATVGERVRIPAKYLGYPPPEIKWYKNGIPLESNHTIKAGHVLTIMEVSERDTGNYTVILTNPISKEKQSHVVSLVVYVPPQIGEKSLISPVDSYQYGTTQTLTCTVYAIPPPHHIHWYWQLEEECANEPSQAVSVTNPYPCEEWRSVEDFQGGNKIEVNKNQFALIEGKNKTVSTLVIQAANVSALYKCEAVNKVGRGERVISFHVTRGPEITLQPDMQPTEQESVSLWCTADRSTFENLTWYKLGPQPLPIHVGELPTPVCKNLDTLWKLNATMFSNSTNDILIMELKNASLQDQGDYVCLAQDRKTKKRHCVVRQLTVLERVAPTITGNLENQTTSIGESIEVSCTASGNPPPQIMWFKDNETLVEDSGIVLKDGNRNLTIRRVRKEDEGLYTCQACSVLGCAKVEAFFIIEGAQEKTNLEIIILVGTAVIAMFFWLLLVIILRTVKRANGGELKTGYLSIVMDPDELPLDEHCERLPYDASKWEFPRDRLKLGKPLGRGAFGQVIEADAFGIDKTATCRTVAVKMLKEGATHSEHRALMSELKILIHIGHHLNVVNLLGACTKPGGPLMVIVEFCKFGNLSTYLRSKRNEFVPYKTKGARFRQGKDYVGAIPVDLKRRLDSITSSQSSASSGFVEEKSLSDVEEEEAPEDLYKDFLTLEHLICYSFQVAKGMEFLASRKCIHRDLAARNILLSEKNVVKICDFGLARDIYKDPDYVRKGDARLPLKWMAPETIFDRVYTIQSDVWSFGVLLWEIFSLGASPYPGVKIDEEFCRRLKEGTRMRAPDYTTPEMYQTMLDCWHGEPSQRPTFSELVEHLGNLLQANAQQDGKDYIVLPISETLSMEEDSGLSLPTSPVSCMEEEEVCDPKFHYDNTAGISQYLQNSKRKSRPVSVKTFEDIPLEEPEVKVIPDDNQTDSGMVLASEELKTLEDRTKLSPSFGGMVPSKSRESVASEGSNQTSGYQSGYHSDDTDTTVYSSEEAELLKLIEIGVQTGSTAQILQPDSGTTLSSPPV
Epidermal growth factor receptor, sequence (P00533 whole entry): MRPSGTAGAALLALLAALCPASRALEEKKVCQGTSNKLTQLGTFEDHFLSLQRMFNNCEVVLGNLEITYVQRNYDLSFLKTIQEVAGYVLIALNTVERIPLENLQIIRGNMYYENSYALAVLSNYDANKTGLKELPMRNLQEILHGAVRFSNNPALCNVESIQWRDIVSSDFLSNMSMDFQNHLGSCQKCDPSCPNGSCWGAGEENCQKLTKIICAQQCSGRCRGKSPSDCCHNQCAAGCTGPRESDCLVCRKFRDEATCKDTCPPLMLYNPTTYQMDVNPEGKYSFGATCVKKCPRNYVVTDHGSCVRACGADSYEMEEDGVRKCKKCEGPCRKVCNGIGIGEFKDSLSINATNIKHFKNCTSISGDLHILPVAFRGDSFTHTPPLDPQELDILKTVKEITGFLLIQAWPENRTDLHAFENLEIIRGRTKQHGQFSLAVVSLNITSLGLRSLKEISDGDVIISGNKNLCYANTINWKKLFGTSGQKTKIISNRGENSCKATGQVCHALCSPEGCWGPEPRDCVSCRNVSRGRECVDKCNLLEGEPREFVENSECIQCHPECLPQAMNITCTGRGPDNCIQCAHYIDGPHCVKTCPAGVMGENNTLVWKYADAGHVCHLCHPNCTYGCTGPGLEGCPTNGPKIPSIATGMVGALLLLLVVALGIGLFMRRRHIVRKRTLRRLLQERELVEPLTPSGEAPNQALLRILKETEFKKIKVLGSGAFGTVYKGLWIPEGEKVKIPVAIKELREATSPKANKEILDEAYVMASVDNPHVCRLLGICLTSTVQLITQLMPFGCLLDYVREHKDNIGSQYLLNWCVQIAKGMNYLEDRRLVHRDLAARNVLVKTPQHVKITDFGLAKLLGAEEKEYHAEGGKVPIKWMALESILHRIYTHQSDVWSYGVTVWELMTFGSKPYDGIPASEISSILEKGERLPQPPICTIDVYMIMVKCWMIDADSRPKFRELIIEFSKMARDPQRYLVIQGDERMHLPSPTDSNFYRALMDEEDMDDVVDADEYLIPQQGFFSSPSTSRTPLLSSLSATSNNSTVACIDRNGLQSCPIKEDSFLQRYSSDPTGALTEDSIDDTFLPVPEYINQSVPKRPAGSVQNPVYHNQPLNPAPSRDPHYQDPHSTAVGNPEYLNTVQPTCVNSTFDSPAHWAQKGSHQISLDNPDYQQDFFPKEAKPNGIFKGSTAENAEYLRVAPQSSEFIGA
T1 sequence (P47871 whole entry): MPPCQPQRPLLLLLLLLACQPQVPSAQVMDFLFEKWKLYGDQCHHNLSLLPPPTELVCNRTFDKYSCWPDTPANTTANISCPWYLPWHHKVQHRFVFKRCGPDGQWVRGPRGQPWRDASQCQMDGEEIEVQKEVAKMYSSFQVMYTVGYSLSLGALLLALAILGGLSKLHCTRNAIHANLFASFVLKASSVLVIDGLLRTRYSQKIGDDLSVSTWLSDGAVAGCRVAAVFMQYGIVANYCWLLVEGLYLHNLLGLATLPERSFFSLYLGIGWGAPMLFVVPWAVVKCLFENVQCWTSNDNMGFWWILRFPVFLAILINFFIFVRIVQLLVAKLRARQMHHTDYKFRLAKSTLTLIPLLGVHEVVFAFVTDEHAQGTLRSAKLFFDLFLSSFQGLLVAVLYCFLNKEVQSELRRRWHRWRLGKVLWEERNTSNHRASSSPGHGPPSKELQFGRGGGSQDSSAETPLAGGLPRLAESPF
Acetylcholinesterase, sequence (P22303 whole entry): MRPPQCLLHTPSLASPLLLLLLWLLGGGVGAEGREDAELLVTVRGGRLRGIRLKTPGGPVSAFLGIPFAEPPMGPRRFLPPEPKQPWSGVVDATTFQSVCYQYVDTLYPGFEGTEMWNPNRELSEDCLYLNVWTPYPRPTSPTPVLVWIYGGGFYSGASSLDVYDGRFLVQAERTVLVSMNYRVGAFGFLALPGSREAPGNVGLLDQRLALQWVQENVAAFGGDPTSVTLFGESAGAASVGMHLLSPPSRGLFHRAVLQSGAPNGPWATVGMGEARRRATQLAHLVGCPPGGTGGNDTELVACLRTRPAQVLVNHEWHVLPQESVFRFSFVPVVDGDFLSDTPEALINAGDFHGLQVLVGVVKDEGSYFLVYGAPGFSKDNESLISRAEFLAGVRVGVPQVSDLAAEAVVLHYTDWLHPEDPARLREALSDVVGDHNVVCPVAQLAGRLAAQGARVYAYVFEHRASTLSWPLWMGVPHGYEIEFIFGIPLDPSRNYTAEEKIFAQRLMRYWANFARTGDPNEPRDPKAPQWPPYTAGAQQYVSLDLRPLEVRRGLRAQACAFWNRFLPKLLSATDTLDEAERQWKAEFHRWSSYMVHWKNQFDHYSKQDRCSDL
Amine oxidase [flavin-containing] B, sequence (P27338 whole entry): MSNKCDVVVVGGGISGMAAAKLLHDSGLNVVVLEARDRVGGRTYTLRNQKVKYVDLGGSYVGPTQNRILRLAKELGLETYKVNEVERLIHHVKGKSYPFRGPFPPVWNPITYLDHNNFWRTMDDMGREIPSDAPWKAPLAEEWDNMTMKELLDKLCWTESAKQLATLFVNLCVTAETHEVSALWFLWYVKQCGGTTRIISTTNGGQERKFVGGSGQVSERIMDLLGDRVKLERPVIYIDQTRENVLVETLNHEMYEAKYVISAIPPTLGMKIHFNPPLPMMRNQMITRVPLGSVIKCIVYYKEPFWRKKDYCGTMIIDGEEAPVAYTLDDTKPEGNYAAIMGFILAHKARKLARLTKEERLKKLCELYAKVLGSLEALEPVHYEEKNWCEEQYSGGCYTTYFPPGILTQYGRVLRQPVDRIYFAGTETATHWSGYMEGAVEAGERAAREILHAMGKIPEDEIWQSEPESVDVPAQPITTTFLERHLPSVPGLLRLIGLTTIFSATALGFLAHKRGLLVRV

IC50 [1]: 11.3 nM
IC50 [2]: 46.6 nM
SMILES: Cc1c(NC(=O)Nc2ccc(OC(F)(F)F)cc2)sc2ccccc12

SMILES: O=C(/C=C/c1cccs1)c1ccc(OCCCCBr)cc1
IC50 [3]: 420 nM

GI50 [4]: 8300 nM
GI50 [6]: 2000 nM
SMILES: N#Cc1c(-n2c(N)c(C#N)c(N)c(/N=N/c3ccccc3)c2=O)sc2c1CCCC2
GI50 [5]: 4000 nM

SMILES: N#Cc1c(-c2ccc(N3CCOCC3)cc2)csc1N
Activity [7]: 48.94%

half-life [8]: 72 h
SMILES: CN1C(C(=O)Nc2ccccn2)=C(O)c2sccc2S1(=O)=O [TENOXICAM]

SMILES: O=C(C[S+]([O-])C(F)(F)F)c1cc2ccccc2s1 (configuration not stated)
Activity [9]: <10 mmol/L

IC50 [10]: 110 nM
SMILES: Cc1ccc2c(c1)n(CN1CCN(c3ccccc3)CC1)c(=O)n2CN1CCN(c2ccccc2)CC1

IC50 [11]: 33100 nM
SMILES: Nc1sc2c(c1C(=O)Nc1cnc3ccccc3c1)CCCC2

SMILES: Cc1cc(=O)oc2c(/C=N/NC(=O)c3sc4ccccc4c3Cl)c(O)ccc12
inhibition [12]: 50%

SMILES: CNCC[C@H](Oc1cccc2ccccc12)c1cccs1 [DULOXETINE]
half-life [8]: 12 h

half-life [8]: 7 h
SMILES: Cc1ccsc1C(=CCCN1CCC[C@@H](C(=O)O)C1)c1sccc1C [TIAGABINE]

GI50 [4]: 10 nM
GI50 [6]: 10 nM
SMILES: CCOC(=O)c1cc(C(=O)N/N=C(/C)[C@H]2CC[C@H]3[C@@H]4CC=C5C[C@@H](O)CC[C@]5(C)[C@H]4CC[C@]23C)c(Nc2ccccc2)s1
GI50 [5]: 30 nM

SMILES: O=c1[nH]c(-c2sc3ccccc3c2Cl)nc2ccccc12
inhibition zone (IZ) [13]: 12 mm
inhibition zone (IZ) [14]: 16 mm

SMILES: O=c1c2ccccc2nc(-c2sc3ccccc3c2Cl)n1-c1ccc([N+](=O)[O-])cc1
inhibition zone (IZ) [15]: 17 mm
inhibition zone (IZ) [16]: 17 mm

IC50 [1]: 320 nM
IC50 [2]: 320 nM
SMILES: N#Cc1c(N)sc(C(=O)NC2=NN=C(O)/C2=C(\C=C\c2ccccc2)c2ccccc2)c1N

half-life [8]: 1.5 h
SMILES: CC(C(=O)O)c1ccc(C(=O)c2ccccc2)s1 (configuration not stated) [TIAPROFENIC ACID]

SMILES: COc1ccc2c(c1)c(CC(=O)O)c(C)n2C(=O)c1ccc(Cl)cc1 [INDOMETHACIN]
Activity [7]: 47.73%

SMILES: COC1=C(Nc2sc3c(c2C(N)=O)CCCC3)C(=O)c2ccccc2C1=O
inhibition [17]: 96%

IC50 [18]: 1030 nM
SMILES: C/C(=N\N=C1/CS(=O)(=O)N(C)c2ccccc21)c1ccc(Br)s1

half-life [8]: 19 h
SMILES: O=C(Nc1nc(-c2cc(Cl)cs2)c(N2CCN(C3CCCCC3)CC2)s1)c1cnc(N2CCC(C(=O)O)CC2)c(Cl)c1 [AVATROMBOPAG]

half-life [19]: 7.4 h
SMILES: CC(=O)Oc1cc2c(s1)CCN(C(C(=O)C1CC1)c1ccccc1F)C2 (configuration not stated)

SMILES: O=C(O[C@H]1C[N+]2(CCCOc3ccccc3)CCC1CC2)C(O)(c1cccs1)c1cccs1
half-life [8]: 24 h

SMILES: O=C(CSc1nnc(-c2sc3ccccc3c2Cl)[nH]1)c1ccc(F)cc1
inhibition zone (IZ) [20]: 15 mm
inhibition zone (IZ) [21]: 16 mm

half-life [19]: 10.6 h
SMILES: Cc1ccc([C@@H]2O[C@H](CO)[C@@H](O)[C@H](O)[C@H]2O)cc1Cc1ccc(-c2ccc(F)cc2)s1 [CANAGLIFLOZIN ANHYDROUS]

SMILES: O=c1c2ccccc2nc(-c2sc3ccccc3c2Cl)n1-c1ccc(F)cc1
inhibition zone (IZ) [15]: 14 mm
inhibition zone (IZ) [16]: 14 mm

IC50 [22]: 14400 nM
IC50 [23]: 4400 nM
SMILES: Cc1cc(Cl)ccc1-c1ccc(NC(=O)C(Cc2ccc(C(=O)NCCS(=O)(=O)O)s2)c2ccc(-c3ccc(C(C)(C)C)cc3)cc2)cc1 (configuration not stated)
